From patent US20250361230A1, “LATS Inhibitors and Uses Thereof” (The USA, as Represented by the Secretary, Dept. of Heath …, priority 2022, published 2025)

Target: T1, LATS1 Kinase-NanoLuc fusion in HEK-293 cells (Homo sapiens, UniProt O95835)
T1 construct: host or cells: HEK-293
T1 sequence (O95835 1-1130): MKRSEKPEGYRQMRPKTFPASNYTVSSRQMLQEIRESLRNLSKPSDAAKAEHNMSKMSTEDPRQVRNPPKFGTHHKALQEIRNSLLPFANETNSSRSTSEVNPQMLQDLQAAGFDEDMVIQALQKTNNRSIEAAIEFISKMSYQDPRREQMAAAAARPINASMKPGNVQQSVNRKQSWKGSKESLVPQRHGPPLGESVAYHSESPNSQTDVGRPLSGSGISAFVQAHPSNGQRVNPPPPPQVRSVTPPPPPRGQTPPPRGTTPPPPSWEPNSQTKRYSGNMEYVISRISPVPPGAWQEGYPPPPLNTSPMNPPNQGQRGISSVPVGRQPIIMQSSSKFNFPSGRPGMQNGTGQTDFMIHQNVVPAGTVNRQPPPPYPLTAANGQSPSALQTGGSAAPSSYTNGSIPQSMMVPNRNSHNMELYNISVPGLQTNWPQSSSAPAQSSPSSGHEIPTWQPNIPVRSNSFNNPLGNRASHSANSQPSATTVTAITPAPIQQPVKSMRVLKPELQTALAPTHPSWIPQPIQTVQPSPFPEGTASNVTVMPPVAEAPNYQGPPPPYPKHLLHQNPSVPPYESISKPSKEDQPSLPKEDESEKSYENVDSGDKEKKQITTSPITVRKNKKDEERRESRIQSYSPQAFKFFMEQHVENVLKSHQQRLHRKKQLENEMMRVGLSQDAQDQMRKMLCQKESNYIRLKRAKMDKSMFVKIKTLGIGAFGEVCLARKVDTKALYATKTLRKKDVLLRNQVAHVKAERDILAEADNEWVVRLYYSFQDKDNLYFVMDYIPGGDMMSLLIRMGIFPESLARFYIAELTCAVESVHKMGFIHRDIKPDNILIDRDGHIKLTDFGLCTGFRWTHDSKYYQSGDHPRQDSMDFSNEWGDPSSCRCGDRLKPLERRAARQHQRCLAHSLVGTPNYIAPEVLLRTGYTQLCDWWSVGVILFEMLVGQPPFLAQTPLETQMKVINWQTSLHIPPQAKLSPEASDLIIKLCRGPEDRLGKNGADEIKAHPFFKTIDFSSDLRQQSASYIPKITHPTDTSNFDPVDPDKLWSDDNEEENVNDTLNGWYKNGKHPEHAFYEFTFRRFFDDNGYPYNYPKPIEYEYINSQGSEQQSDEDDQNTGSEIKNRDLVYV
Assay: NanoBRET target engagement assay in transfected HEK-293 cells, LATS1
Format: cell-based
Conditions: Table 28, NanoBRET, HEK-293 cells; read-out: LATS1 (Cellular) IC50
Text: The NanoBRET™ assay measures kinase engagement in real time in the context of the intact cell. The assay uses a Kinase-NanoLuc® fusion vector expressing a kinase protein to which a luciferase tag has been added, a cell-permeant fluorescent NanoBRET™ tracer, a NanoLuc® substrate, and an extracellular NanoLuc® inhibitor. Upon expression of the luciferase-tagged kinase, cells will produce a strong BRET signal only in the presence of the NanoBRET™ tracer. The extracellular NanoLuc® inhibitor ensures that the BRET signal observed emanates only from live cells. Because the BRET signal has tight distance constraints, addition of the test compound will decrease the BRET signal if the compound competes with the NanoBRET™ tracer for binding to the kinase domain. Under the appropriate tracer conditions established by the manufacturer, quantitative intracellular affinity and relative potency can then be determined using Mass Action model equations.
HEK-293 cells were purchased from ATCC. FuGENEHD Transfection Reagent, Kinase-NanoLuc® fusion plasmids, Transfection Carrier DNA, NanoBRET™ Tracers and dilution buffer, NanoBRET™ Nano-Glo Substrate, Extracellular NanoLuc® Inhibitor were obtained from Promega.
Assays were conducted following Promega assay protocol with some modifications as described further below. HEK-293 Cells were transiently transfected with Kinase-NanoLuc® Fusion Vector DNA by FuGENE HD Transfection Reagent. Test compounds were delivered into 384 well assay plate by Echo 550 (Labcyte Inc, Sunnyvale, CA). Transfected cells were harvested and mixed with NanoBRET™ Tracer Reagent and dispensed into 384 well plates and incubated at 37° C. in 5% CO2 cell culture incubator for 1 hour. The NanoBRET™ Nano-Glo Substrate plus Extracellular NanoLuc® Inhibitor Solution were added into the wells of the assay plate and incubated for 2-3 minutes at room temperature. The donor emission wavelength (460 nm) and acceptor emission wavelength (600 nm) were measured in the EnVision plate reader. The BRET Ratios were calculated. BRET Ratio=[(Acceptor sample÷Donor sample)−(Acceptor no-tracer control÷Donor no-tracer control)]. The IC50 values of compounds were calculated with Prism GraphPad program.
• 1. Transient Transfection of HEK-293 Cells NanoLuc® Fusion Vector DNA • 1). Cultivate HEK-293 cells (70-80% confluence) appropriately prior to assay. Trypsinize and collect HEK-293 cells. • 2). Prepare lipid: DNA complexes as follows: • a. Prepare a […] solution of DNA in Opti-MEM™ without serum that consists of the following ratios of carrier DNA and DNA encoding NanoLuc® fusion. 9.0 µg/mL of Transfection Carrier DNA, […] of NanoLuc® fusion vector DNA and 1 mL of Opti-MEM™ without phenol red. Mix thoroughly. • b. Add 30 μl of FuGENE HD Transfection Reagent into each milliliter of DNA mixture to form lipid: DNA complex. • c. Mix by inversion 10 times. • d. Incubate at ambient temperature for 20 minutes to allow complexes to form. • 3). In a sterile, conical tube, mix 1 part of lipid: DNA complex with 20 parts of HEK-293 cells in suspension. Mix gently by inversion 5 times. • 4). Dispense cells+lipid: DNA complex into a sterile tissue culture dish and incubate for 22-24 hours. • 2. Addition of Test Compounds (dry plate shooting): Each test compound is delivered from the compound source plate to the wells of 384-well white NBS plate by Echo 550. • 3. Preparation of Cells with NanoBRET™ Tracer Reagent • 1). Remove medium from dish with transfected HEK-293 cells via aspiration, trypsinize and allow cells to dissociate from the dish. • 2). Neutralize trypsin using medium containing serum and centrifuge at 200× g for 5 minutes to pellet the cells. Adjust the cell density to 2×10^5 cells/mL in Opti-MEM™ without phenol red. • 3). Prepare Complete 20× NanoBRET™ Tracer Reagent with Tracer Dilution Buffer. • 4). Dispense one part of Complete 20× NanoBRET™ Tracer Reagent to 20 parts of cells in the tube. Mix gently by inversion 10 times. • 5). […]

Row | IC50 [µM] | Compound
1 | 1.56 | CC(C)(N)c1ccc(-c2ccnc3[nH]cc(F)c23)cc1 [Compound 238, 2-(4-(3-fluoro-1H-pyrrolo[2,3-b]pyridin-4-yl)phenyl)propan-2-amine]
2 | 11.9 | NCc1ccc(-c2ccnc3[nH]cc(-c4cccnc4)c23)cc1 [Compound 245, (4-(3-(pyridin-3-yl)-1H-pyrrolo[2,3-b]pyridin-4-yl)phenyl) methanamine]
3 | 2.98 | NCc1ccc(-c2ccnc3[nH]cc(-c4ccccc4)c23)cc1 [Compound 253, (4-(3-phenyl-1H-pyrrolo[2,3-b]pyridin-4-yl)phenyl) methanamine]
4 | 0.714 | Cc1cc(-c2ccnc3[nH]cc(Cl)c23)ccc1CN [Compound 254, (4-(3-chloro-1H-pyrrolo[2,3-b]pyridin-4-yl)-2-methylphenyl) methanamine]
5 | 6.71 | Cc1cc(-c2ccnc3[nH]ccc23)ccc1CN [Compound 266, (2-methyl-4-(1H-pyrrolo[2,3-b]pyridin-4-yl)phenyl) methanamine]
6 | > 50 | c1cc(-c2ccc3c(c2)CCNC3)c2cc[nH]c2n1 [Compound 267, 6-(1H-pyrrolo[2,3-b]pyridin-4-yl)-1,2,3,4-tetrahydroiso-quinoline]
7 | > 50 | c1cc(-c2ccc(C3CCCCN3)cc2)c2cc[nH]c2n1 (stereo not shown) [Compound 271, 4-(4-(piperidin-2-yl)phenyl)-1H-pyrrolo[2,3-b]pyridine]
8 | 10.1 | NCc1ccc(-c2ccnc3[nH]cc(F)c23)cc1 [Compound 275, (4-(3-fluoro-1H-pyrrolo[2,3-b]pyridin-4-yl)phenyl) methanamine]
9 | 2.83 | NCc1ccc(-c2ccnc3[nH]cc(Cl)c23)cc1 [Compound 276, (4-(3-chloro-1H-pyrrolo[2,3-b]pyridin-4-yl)phenyl) methanamine]
10 | 34.8 | NCc1ccc(-c2ccnc3[nH]ccc23)cc1C(F)(F)F [Compound 284, (4-(1H-pyrrolo[2,3-b]pyridin-4-yl)-2-(trifluoromethyl)phenyl) methanamine]
11 | 22.8 | NCc1ccc(-c2ccnc3[nH]ccc23)cc1 [Compound 287, (4-(1H-pyrrolo[2,3-b]pyridin-4-yl)phenyl) methanamine]
12 | 1.35 | COC(=O)c1c[nH]c2nccc(-c3cc(C)c([C@@]4(O)[C@H](C)CN(C5CCS(=O)(=O)CC5)C[C@@H]4C)c(F)c3)c12 [Compound 309, methyl 4-(4-((3S,4s,5R)-1-(1,1-dioxidotetrahydro-2H-thiopyran-4-yl)-4-hydroxy-3,5-dimethylpiperidin-4-yl)-3-fluoro-5-methylphenyl)-1H-pyrrolo[2,3-b]pyridine-3-carboxylate]
13 | 4.59 | COC(=O)c1c[nH]c2nccc(-c3cc(C)c([C@@]4(O)[C@H](C)CN(C(=O)CN)C[C@@H]4C)c(F)c3)c12 [Compound 310, methyl 4-(3-fluoro-4-((3S,4s,5R)-1-glycyl-4-hydroxy-3,5-dimethylpiperidin-4-yl)-5-methylphenyl)-1H-pyrrolo[2,3-b]pyridine-3-carboxylate]

More lines, now with the values behind:

Row | Compound | IC50 [µM]
14 | Fc1c[nH]c2nccc(-c3ccc(C4CCNCC4)c(Cl)c3)c12 [Compound 172, 4-(3-chloro-4-(piperidin-4-yl)phenyl)-3-fluoro-1H-pyrrolo[2,3-b]pyridine] | > 50
15 | Clc1c[nH]c2nccc(-c3ccc(C4CCNCC4)cc3)c12 [Compound 173, 3-chloro-4-(4-(piperidin-4-yl)phenyl)-1H-pyrrolo[2,3-b]pyridine] | 1.2
16 | Cc1cc(-c2ccnc3[nH]ccc23)ccc1C1CCNCC1 [Compound 177, 4-(3-methyl-4-(piperidin-4-yl)phenyl)-1H-pyrrolo[2,3-b]pyridine] | 48.3
17 | c1cc(-c2ccc(C3CC4CCC(C3)N4)cc2)c2cc[nH]c2n1 (stereo not shown) [Compound 184, 4-(4-(8-azabicyclo[3.2.1]octan-3-yl)phenyl)-1H-pyrrolo[2,3-b]pyridine] | 57.4
18 | CC1CC(c2ccc(-c3ccnc4[nH]ccc34)cc2)CC(C)N1 (stereo not shown) [Compound 187, 4-(4-(2,6-dimethylpiperidin-4-yl)phenyl)-1H-pyrrolo[2,3-b]pyridine] | > 50
19 | CC1(c2ccc(-c3ccnc4[nH]ccc34)cc2)CCNCC1 [Compound 201, 4-(4-(4-methylpiperidin-4-yl)phenyl)-1H-pyrrolo[2,3-b]pyridine] | > 50
20 | Cc1cc(-c2ccnc3[nH]cc(F)c23)ccc1CN [Compound 211, (4-(3-fluoro-1H-pyrrolo[2,3-b]pyridin-4-yl)-2-methylphenyl) methanamine] | 6.37
21 | NCc1ccc(-c2ccnc3[nH]cc(-c4ccccc4)c23)cc1-c1ccccc1 [Compound 219, (5-(3-phenyl-1H-pyrrolo[2,3-b]pyridin-4-yl)-[1,1′-biphenyl]-2-yl)methanamine] | 0.653
22 | COC(=O)c1c[nH]c2nccc(-c3ccc(CN)cc3)c12 [Compound 223, methyl 4-(4-(aminomethyl)phenyl)-1H-pyrrolo[2,3-b]pyridine-3-carboxylate] | 66.8
23 | Cc1cccc(-c2c[nH]c3nccc(-c4ccc(CN)cc4)c23)c1 [Compound 230, (4-(3-(m-tolyl)-1H-pyrrolo[2,3-b]pyridin-4-yl)phenyl) methanamine] | 5.47
24 | Cc1cc(-c2ccnc3[nH]cc(F)c23)cc(F)c1[C@@]1(O)[C@H](C)CN(C)C[C@@H]1C [Compound 304, (3S,4s,5R)-4-(2-fluoro-4-(3-fluoro-1H-pyrrolo[2,3-b]pyridin-4-yl)-6-methylphenyl)-1,3,5-trimethylpiperidin-4-ol] | 0.0417
25 | Cc1cc(-c2ccnc3[nH]cc(F)c23)cc(F)c1[C@@]1(O)[C@H](C)CN(C(C)C)C[C@@H]1C [Compound 305, (3S,4s,5R)-4-(2-fluoro-4-(3-fluoro-1H-pyrrolo[2,3-b]pyridin-4-yl)-6-methylphenyl)-1-isopropyl-3,5-dimethylpiperidin-4-ol] | 0.0622
